We go through one compound from US10086039B2, “Lamin A, an activator of longevity/anti-aging SIRT1 protein” (THE UNIVERSITY OF HONG KONG, priority 2012, dated 2018).

Test [1] deals with Zmpste24−/− mice. In words: Micro-CT of trabecular bone and bone mineral density in Zmpste24−/− mice. It is filed as in vivo, mouse. Particulars: resveratrol 20 μg/ml in drinking water, 4 months. As for the experimental part: Zmpste24^−/− mice have been described previously (Pendas et al., 2002). Mouse experimentation was performed in accordance with the guidelines of the Committee on the Use of Live Animals in Teaching and Research (CULATR) at the University of Hong Kong. New-born Zmpste24^−/− mice and wild-type controls were fed with resveratrol (20 μg/ml) or N-acetyl Cysteine (1 mg/ml) in drinking water. The survival of resveratrol-treated, NAC-treated, or vehicle-treated Zmpste24^−/− mice was recorded and their body weight was monitored weekly. The trabecular bone organization and bone mineral density were determined by micro-CT. The survival rate was analyzed by Kaplan-Meier method and statistical comparison was performed by Log-rank (Mantel-Cox) Test.

The test system of test [2] is Zmpste24−/− BMSCs. In words: BMSC colony-forming assay in vitro. Format: cell-based, mouse. An excerpt: Bone marrow stromal cells were isolated and cultured according to modified protocol (Enumeration and Expansion of Mouse Mesenchymal Progenitor Cells Using MESENCUILT®, Stemcell Technologies, Canada). Briefly, bone marrow cells were flushed out from femurs and tibias with α-MEM (Invitrogen, Carlsbad, Calif., USA) supplemented with 20% FBS, and plated in petri dishes. Non-adherent cells were removed on day 3 and medium was replaced every 3 days. BMSC colonies were fixed with methanol and stained with crystal violet solution on the indicated day. For magnetic enrichment, CD11b-positive population was removed using a MIDIMACS™ magnetic cell sorting kit (Miltenyi Biotec, Bergisch Gladbach, Germany), following the manufacturer's instructions. Colonies containing more than 50 cells were counted. BMSC colony forming efficiency was calculated as number of colonies formed by […] bone marrow nucleated cells.

In test [3] the target is T1, FLAG-SIRT1 binding to lamin A (Homo sapiens, UniProt Q96EB6).
T1 construct: expressed in transfected cells; host or cells: HEK293
T1 sequence (Q96EB6 1-747): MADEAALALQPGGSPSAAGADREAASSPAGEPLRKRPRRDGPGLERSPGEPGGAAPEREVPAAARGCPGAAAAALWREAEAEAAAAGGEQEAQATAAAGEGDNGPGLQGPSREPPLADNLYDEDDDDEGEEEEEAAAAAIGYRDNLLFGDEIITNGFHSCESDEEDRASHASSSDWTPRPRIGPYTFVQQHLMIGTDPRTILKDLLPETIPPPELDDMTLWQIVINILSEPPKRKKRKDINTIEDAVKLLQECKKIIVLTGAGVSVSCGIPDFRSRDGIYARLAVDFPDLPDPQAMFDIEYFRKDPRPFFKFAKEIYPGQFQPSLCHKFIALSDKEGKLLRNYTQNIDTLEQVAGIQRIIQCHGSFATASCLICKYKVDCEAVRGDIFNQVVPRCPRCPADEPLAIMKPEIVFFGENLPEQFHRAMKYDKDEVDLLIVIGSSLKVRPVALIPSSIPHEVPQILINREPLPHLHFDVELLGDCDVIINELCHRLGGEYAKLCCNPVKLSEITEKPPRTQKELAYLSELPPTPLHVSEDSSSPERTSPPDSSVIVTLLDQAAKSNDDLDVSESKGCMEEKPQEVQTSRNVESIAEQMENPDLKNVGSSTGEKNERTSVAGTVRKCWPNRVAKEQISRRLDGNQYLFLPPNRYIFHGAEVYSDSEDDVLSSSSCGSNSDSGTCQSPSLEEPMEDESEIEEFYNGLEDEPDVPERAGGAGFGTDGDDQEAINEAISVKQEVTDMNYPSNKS
T1 sequence (P02545 1-646 partner limits assumed): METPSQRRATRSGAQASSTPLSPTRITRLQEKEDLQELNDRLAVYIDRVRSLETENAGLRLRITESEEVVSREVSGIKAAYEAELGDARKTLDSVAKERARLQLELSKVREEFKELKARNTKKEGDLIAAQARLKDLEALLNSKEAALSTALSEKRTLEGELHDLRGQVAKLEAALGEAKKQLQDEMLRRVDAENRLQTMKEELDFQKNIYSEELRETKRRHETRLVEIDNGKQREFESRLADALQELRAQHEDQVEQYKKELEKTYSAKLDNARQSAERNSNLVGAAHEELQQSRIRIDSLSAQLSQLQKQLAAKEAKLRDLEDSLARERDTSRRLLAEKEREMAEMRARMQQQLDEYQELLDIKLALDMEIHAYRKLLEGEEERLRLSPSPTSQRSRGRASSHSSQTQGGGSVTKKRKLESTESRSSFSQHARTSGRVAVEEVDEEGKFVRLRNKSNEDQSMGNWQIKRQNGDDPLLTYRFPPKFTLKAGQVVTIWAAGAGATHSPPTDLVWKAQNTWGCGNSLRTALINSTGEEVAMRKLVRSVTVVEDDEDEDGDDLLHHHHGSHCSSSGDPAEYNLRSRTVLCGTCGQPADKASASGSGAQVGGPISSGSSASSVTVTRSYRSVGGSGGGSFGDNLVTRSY
In words: Co-immunoprecipitation of FLAG-SIRT1 and lamin A in HEK293 cells. To be noted: dose-dependent per FIG. 3D legend. Format: cell-based. As for the experimental part:
For co-immunoprecipitation, cells were lysed into pre-chilled RIPA buffer containing 300 mM or 500 mM NaCl and protease inhibitors. Primary antibodies or appropriate control IgGs were added to the lysate and incubated for 2 h on a rocking platform at 4° C. before Agarose beads were added and incubated O/N. The beads were washed twice with RIPA buffer, resuspended into Laemmli buffer and boiled, and protein suspension was collected by centrifugation and stored for further analysis.

In the case of `Oc1ccc(C=Cc2cc(O)cc(O)c2)cc1` [resveratrol], in test [1], the bone mineral density entry is on record as “increased bone mineral density”, the trabecular structural organization entry is given as “improved the structural organization” and the trabecular thickness entry is listed as “increased the trabecular thickness”. In test [2] (Zmpste24−/− BMSCs with SIRT1 knocked down), the “rescue effect on colony-forming capacity” value is “attenuated”. Moreover, the colony-forming capacity result in test [2] (Zmpste24−/− BMSCs, 2 μM and 10 μM, dose-dependent) is reported as “enhanced the colony-forming capacity”. Also, the “binding of FLAG-SIRT1 to lamin A” value in test [3] is reported as “enhanced the binding”.
